Several values for one entry are separate records, joined by “and”; a condition that tells them apart may be missing. Equal entries are not always repeated.
Columns and labels:
Assay type in all cases: cell-based
[1] = tested on: activation protein-1 (AP-1); experiment: Activity inhibition test of AP-1, Coll-CAT reporter in HaCAT cells; settings: c-Jun expression, in the presence of retinoic acid receptor α, CAT ELISA, FIG. 6
Procedure: Since the activation protein-1 (c-Jun is the constituent of AP-1) is transcription factor inducing expression of collagenase enzyme, which is a major cause of skin wrinkle, the effect of wrinkle prevention was determined by the activity inhibition test of AP-1.
CAT reporter (Coll-CAT) containing collagen promoter including AP-1 transcription factor binding site (TRE) were utilized to cotransfect skin cancer (HaCAT) cell line. The effect of retinol derivatives on the activity of AP-1 was measured by CAT ELISA. In some cases, the vector expressing c-Jun or retinoic acid receptors were utilized to cotransfect, and the effect of retinol derivatives on the transcription activity of c-Jun was analyzed.
With the assumption of the prepared retinol-(N-formyl-aspartam) derivatives which inhibit the activity of AP-1 causing skin wrinkle, would have the utility for cosmetics, the related investigations were proceeded. Similar to the experiment of retinoic acid receptor, AP-1 (c-jun) expression vector and Coll-CAT plasmid for the activity measurement were introduced into the skin cancer (HaCAT) cell line with liposome. After treating the cells with retinol-(N-formyl-aspartam) derivatives, the cell extracts were isolated. The expression level of CAT were measured with CAT ELISA to determine the effect of retinol-(N-formyl-aspartam) on the activity of the AP-1.

[2] = tested on: activation protein-1 (AP-1); experiment: Activity inhibition test of AP-1, Coll-CAT reporter in Cos-1 cells; settings: for lowered the expression of collagenase (Coll-CAT): expression level in the presence of c-Jun expression set as 100%; for effect on AP-1 activity inhibition, compared in words: Coll-CAT
From the text: CAT reporter (Coll-CAT) containing collagen promoter including AP-1 transcription factor binding site (TRE) was utilized to transfect Cos-1 cell line. Activity inhibition tests of activation protein-1 (AP-1) similar to the experimental example 6 were proceeded.

[3] = molecular target: T1, retinoic acid receptor α (Homo sapiens, UniProt P10276); experiment: RAR activity test, DR5-tk-CAT reporter in Cos-1 cells; settings: 1 μM, CAT ELISA, FIG. 3-5
T1 construct: expressed in transfected cells; b135 says HaCAT
T1 sequence (P10276 1-462): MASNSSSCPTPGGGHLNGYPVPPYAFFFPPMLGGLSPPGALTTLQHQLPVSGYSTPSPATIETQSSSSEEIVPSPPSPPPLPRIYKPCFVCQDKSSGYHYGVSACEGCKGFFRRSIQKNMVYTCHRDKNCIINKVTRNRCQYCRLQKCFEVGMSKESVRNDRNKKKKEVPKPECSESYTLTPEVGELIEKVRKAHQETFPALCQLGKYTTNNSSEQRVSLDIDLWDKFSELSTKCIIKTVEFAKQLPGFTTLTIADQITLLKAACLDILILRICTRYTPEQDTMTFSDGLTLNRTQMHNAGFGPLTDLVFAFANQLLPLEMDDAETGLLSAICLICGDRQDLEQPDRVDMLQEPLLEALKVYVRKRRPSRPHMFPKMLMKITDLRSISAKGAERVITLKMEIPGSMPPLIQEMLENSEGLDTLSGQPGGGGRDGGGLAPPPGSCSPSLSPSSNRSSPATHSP
From the text: Recombinant DNA, DR5-tk-CAT consisting of DR5, effectors of retinoic acid receptor/retinoid X receptor, thymine kinase promoter, and CAT (chloramphenicol acetyl transferase) were mixed with the plasmid DNA expressing retinoic acid receptor α, β, ? and utilized to cotransfect skin cancer (HaCAT) cell line with lipofectamine (GibcoBRL). […] The cells were washed with phosphate-buffered saline (PBS), and the proteins were isolated from each cells, and the activity of β-galactosidase and protein contents were measured to determine transfection efficacy, the transcription level of RAR receptor were measured with CAT ELISA.
(§1) All procedures were done as Experimental Example 3.
as §1

[4] = molecular target: T2, retinoic acid receptor β (Homo sapiens, UniProt P10826); experiment: as above; settings: 1 μM, CAT ELISA, FIG. 3-5
T2 construct: expressed in transfected cells; b135 says HaCAT
T2 sequence (P10826 1-455): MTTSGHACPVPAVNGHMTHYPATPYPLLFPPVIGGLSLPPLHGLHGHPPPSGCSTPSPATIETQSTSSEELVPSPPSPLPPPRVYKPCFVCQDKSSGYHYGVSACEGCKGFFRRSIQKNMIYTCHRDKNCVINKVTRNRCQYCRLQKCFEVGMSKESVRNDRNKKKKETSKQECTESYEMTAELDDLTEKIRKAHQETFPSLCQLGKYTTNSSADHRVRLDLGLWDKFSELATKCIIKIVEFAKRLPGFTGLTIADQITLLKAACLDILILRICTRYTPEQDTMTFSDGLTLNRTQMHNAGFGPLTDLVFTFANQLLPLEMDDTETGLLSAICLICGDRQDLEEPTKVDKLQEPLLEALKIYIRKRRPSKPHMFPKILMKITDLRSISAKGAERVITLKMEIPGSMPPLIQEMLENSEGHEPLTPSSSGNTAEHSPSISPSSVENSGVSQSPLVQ

[5] = molecular target: T3, retinoic acid receptor γ (Homo sapiens, UniProt P13631); experiment: as above; settings: 1 μM, CAT ELISA, FIG. 3-5
T3 construct: expressed in transfected cells; b135 says HaCAT
T3 sequence (P13631 1-454): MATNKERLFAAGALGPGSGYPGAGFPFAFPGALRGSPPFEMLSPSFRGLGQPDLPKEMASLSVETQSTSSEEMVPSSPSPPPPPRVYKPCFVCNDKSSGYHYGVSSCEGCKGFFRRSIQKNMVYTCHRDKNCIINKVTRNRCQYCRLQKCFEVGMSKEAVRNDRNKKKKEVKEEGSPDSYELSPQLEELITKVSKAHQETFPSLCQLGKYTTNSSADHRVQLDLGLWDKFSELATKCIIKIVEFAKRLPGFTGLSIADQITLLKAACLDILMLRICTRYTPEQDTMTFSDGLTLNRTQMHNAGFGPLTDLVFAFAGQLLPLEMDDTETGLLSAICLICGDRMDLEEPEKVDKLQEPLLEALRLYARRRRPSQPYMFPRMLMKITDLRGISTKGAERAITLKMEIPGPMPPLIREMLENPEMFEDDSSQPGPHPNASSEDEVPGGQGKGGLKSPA

[6] = molecular target: T1, retinoic acid receptor α; experiment: RAR activity test, DR5-tk-CAT reporter in HaCAT cells; settings: 1 μM, CAT ELISA, FIG. 2 (A)
From the text: (§2) To analyze the effects of retinol-(N-formyl-aspartam) on the activity of retinoic acid receptor, skin cancer (HaCAT) cell lines were utilized to measure the activity of retinoic acid receptor/retinoid X receptor.
(§3) Recombinant DNA, DR5-tk-CAT or DR1-tk-CAT consisting of DR1 or DR5, effectors of retinoic acid receptor/retinoid X receptor, thymine kinase promoter, and CAT(chloramphenicol acetyl transferase) were mixed with the plasmid DNA expressing retinoic acid receptor α, β, ? or retinoid X receptor α, β, ? to cotransfect skin cancer (HaCAT) cell line with lipofectamine (GibcoBRL). The cotransfected cell lines were cultured for 1 day on DMEM/10% FBS media, each retinol derivatives (1 μM) were added and cultured for one more day, 5% CO2, 37° C. The cells were washed with phosphate-buffered saline (PBS), and the proteins were isolated from each cells, and the activity of β-galactosidase and protein contents were measured to determine transfection efficacy, the transcription level of RAR or RXR receptor were measured with CAT ELISA (Roche Molecular Biochemical, Mannheim, Germany).
To determine the effect of retinol-(N-formyl-aspartam) on retinoic acid receptors, each retinoic acid receptor (α, β, or ? ) expression vector and activity measuring DR5-tk-CAT plasmid were introduced with liposome. After treating cells with retinol-(N-formyl-aspartam), the cell extracts were isolated. The expression level of CAT were measured with CAT ELISA to determine the effect of retinol-(N-formyl-aspartam) on the activity of retinoic acid receptors.

[7] = molecular target: T4, retinoid X receptor γ (Homo sapiens, UniProt P48443); experiment: RXR activity test, DR1-tk-CAT reporter in HaCAT cells; settings: 1 μM, CAT ELISA, FIG. 2 (B)
T4 construct: expressed in transfected cells; host or cells: HaCAT
T4 sequence (P48443 1-463): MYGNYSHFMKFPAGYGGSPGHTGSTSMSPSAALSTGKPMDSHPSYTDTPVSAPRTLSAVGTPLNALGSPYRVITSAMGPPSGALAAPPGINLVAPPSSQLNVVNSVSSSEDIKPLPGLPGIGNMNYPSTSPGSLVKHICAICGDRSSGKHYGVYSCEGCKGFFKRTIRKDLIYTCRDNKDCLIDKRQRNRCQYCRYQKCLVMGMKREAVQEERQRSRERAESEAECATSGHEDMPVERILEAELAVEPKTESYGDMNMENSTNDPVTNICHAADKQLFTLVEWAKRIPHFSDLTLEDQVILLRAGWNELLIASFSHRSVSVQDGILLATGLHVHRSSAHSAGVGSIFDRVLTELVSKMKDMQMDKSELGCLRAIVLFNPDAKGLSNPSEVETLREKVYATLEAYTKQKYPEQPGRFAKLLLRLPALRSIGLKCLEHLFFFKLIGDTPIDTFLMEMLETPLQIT
From the text: as §2, §3

[8] = molecular target: T5, retinoid X receptor β (Homo sapiens, UniProt P28702); experiment: as above; settings: 1 μM, CAT ELISA, FIG. 2 (B)
T5 construct: expressed in transfected cells; host or cells: HaCAT
T5 sequence (P28702 1-533): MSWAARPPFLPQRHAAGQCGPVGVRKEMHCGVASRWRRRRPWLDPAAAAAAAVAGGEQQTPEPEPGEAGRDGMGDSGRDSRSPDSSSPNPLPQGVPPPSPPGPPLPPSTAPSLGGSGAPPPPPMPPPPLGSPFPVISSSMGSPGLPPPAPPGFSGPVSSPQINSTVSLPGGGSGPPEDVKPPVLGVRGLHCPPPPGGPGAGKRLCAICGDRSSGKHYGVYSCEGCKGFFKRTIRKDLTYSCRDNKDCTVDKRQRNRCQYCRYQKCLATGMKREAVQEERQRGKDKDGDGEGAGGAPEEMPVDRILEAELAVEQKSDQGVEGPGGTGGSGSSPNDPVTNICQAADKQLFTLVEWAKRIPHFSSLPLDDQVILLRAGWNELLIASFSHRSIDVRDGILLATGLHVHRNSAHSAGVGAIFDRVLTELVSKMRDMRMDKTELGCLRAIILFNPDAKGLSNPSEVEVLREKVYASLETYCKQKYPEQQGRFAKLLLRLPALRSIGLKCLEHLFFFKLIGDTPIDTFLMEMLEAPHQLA
From the text: as §2, §3

[9] = molecular target: T6, retinoid X receptor α (Homo sapiens, UniProt P19793); experiment: as above; settings: 1 μM, CAT ELISA, FIG. 2 (B)
T6 construct: expressed in transfected cells; host or cells: HaCAT
T6 sequence (P19793 1-462): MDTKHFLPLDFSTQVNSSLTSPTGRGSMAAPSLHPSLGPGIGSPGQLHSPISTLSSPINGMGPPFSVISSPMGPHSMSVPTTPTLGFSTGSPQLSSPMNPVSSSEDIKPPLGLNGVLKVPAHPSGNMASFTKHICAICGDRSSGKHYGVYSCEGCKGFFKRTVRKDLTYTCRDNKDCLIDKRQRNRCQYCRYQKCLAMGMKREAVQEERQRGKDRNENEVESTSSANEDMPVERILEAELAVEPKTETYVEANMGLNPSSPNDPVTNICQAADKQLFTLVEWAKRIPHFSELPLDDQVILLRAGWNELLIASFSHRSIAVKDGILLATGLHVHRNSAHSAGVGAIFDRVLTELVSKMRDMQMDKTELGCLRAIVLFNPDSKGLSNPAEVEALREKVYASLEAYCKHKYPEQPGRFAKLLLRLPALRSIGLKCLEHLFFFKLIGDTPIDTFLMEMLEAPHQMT
From the text: as §2, §3

SMILES: CC1=C(/C=C/C(C)=C/C=C/C(C)=C/C(=O)O)C(C)(C)CCC1 [retinoic acid, reference compound]
- lowered the expression of collagenase (Coll-CAT) [1]: approximately 60%
- lowered the expression of collagenase (Coll-CAT) [2]: ~50% and ~47.5%

SMILES: CC1=C(/C=C/C(C)=C/C=C/C(C)=C/COC(=O)/C=C/C(=O)OC/C=C(C)/C=C/C=C(C)/C=C/C2=C(C)CCCC2(C)C)C(C)(C)CCC1 [retinol-(fumalic acid), Di[(2E,4E,6E,8E)-3,7-dimethyl-9-(2,6,6-trimethyl-1-cyclohexenyl)-2,4,6,8-nonatetraenyl] (E)-2-butenedioate]
- activation of retinoic acid receptor α [3]: high activation
- activation of retinoic acid receptor β [4]: weak activation
- activation of retinoic acid receptor γ [5]: weak activation
- effect on AP-1 activity inhibition, compared in words [2]: no significant effect on AP-1 activity inhibition than retinoic acid or retinol
- lowered the expression of collagenase (Coll-CAT) [2]: approximately 42%

SMILES: CC1=C(/C=C/C(C)=C/C=C/C(C)=C/COC(=O)/C=C(\C)C(=O)OC/C=C(C)/C=C/C=C(C)/C=C/C2=C(C)CCCC2(C)C)C(C)(C)CCC1 [retinol-(mesaconic acid), Di[(2E,4E,6E,8E)-3,7-dimethyl-9-(2,6,6-trimethyl-1-cyclohexenyl)-2.4,6,8-nonatetraenyl] (E)-2-methyl-2-butenedioate]
- effect on AP-1 activity inhibition, compared in words [2]: less effect on AP-1 activity inhibition than retinoic acid or retinol
- lowered the expression of collagenase (Coll-CAT) [2]: ~30%

SMILES: CC1=C(/C=C/C(C)=C/C=C/C(C)=C/COC/C=C(C)/C=C/C=C(C)/C=C/C2=C(C)CCCC2(C)C)C(C)(C)CCC1 [retinol-(retinol), (1E,3E,5E,7E)-9[(2E,4E,6E,8E)-3,7-dimethyl-9-(2,6,6-trimethyl-1-cyclohexenyl)-2,4,6,8-nonatetraenyl]oxy-3,7-dimethyl-1-(2,6,6-trimethyl-1-cyclohexenyl)-1,3,5,7-nonateraene]
- activation of retinoic acid receptor α [3]: high activation
- activation of retinoic acid receptor β [4]: weak activation
- activation of retinoic acid receptor γ [5]: weak activation
- lowered the expression of collagenase (Coll-CAT) [2]: ~41.5%

SMILES: CC1=C(/C=C/C(C)=C/C=C/C(C)=C/CO)C(C)(C)CCC1 [retinol]
- activation of retinoic acid receptor α [3]: high activation
- activation of retinoic acid receptor α [6]: high activation
- lowered the expression of collagenase (Coll-CAT) [1]: approximately 47%
- activation of retinoid X receptor γ [7]: no activation
- activation of retinoid X receptor β [8]: no activation
- activation of retinoid X receptor α [9]: no activation
- lowered the expression of collagenase (Coll-CAT) [2]: approximately 43%

— patent US7030265B2, “Retinol derivatives, the method of preparations and the uses thereof” (Chebigen, Inc., priority 2001, dated 2006)
